Reference: paper PMC9886975, “Ligand recognition mechanism of the human relaxin family peptide receptor 4 (RXFP4)” (Nature Communications, 2023)

Legend:
parental CHO-K1 cells = assay: cAMP accumulation, parental CHO-K1 cells; type: cell-based, Chinese hamster; conditions: Supplementary Fig. 2e–g
RXFP4 E100A = target: T1, RXFP4 E100A (Homo sapiens, UniProt Q8TDU9, E100A); assay: cAMP accumulation, RXFP4 E100A; type: cell-based; conditions: HEK293T
T1 construct: RXFP4(1-374)-; expressed in transfected cells; host or cells: HEK293T, transient (pCMV6)
Text: The full-length human RXFP4 (NCBI Reference Sequence: NM_181885.3) was cloned into a modified pFastBac vector (Invitrogen) with HA signal peptide to enhance receptor expression, followed by a 10× histidine tag and BRIL insertion at the N terminus. LgBiT subunit (Promega) was fused at the C terminus of RXFP4 connected by a 15-amino acid polypeptide linker. […] The engineered human Gαi2, Gβ1, bovine Gγ2, and scFv16 were cloned into the pFastBac vector (Invitrogen), respectively. For cAMP accumulation assay, human RXFP4 and RXFP3 (NCBI Reference Sequence: NM_016568.3) were cloned into pCMV6 constructs (OriGene Technologies). The mutant receptors were modified by site-directed mutagenesis in the setting of the WT constructs, with the primers designed by QuikChange Primer Design [QuickChange Primer Design (http://agilent.com.cn)] and carried out using Phanta Max Master (Vazyme). N-terminal Flag tag was added to both WT and mutant receptors for surface expression measurement. […]
(§1) CHO-K1 (ATCC, Cat#CCL-61) cells stably expressing human RXFP4 (hRXFP4-CHO) or RXFP3 (hRXFP3-CHO) were maintained in DMEM/F12 (Gibco) supplemented with 10% (v/v) fetal bovine serum (FBS) and 2 mM L-glutamine. […] Following 24 h culturing, the transfected cells were ready for detection.
(§2) Ligands were verified for their bioactivity in the beginning in hRXFP4-CHO, which were ready for use after 24 h culturing. […] The time-resolved fluorescence resonance energy transfer (TR-FRET) signals were detected by an EnVision multilabel plate reader (PerkinElmer) with the emission window ratio of 665 nm over 620 nm under 320 nm excitation. […]
Inhibition of forskolin-induced cAMP accumulation was performed in HEK293T cells transiently transfected with WT and mutant receptors. All the mutant constructs were modified by single-point mutation in the setting of the WT receptor. cAMP accumulation data were analyzed using a three-parameter logistic equation to determine pEC50 and Emax values. Emax values for mutants are defined as the window between the maximal response and vehicle control (no ligand) and expressed as a percentage of the WT. […]

RXFP4 D104A = target: T2, RXFP4 D104A (Homo sapiens, UniProt Q8TDU9, D104A); assay: cAMP accumulation, RXFP4 D104A; type: cell-based
T2 construct: RXFP4(1-374)-; expressed in transfected cells; host or cells: HEK293T, transient (pCMV6)
Text: (§3) The full-length human RXFP4 (NCBI Reference Sequence: NM_181885.3) was cloned into a modified pFastBac vector (Invitrogen) with HA signal peptide to enhance receptor expression, followed by a 10× histidine tag and BRIL insertion at the N terminus. LgBiT subunit (Promega) was fused at the C terminus of RXFP4 connected by a 15-amino acid polypeptide linker. […] The engineered human Gαi2, Gβ1, bovine Gγ2, and scFv16 were cloned into the pFastBac vector (Invitrogen), respectively. For cAMP accumulation assay, human RXFP4 and RXFP3 (NCBI Reference Sequence: NM_016568.3) were cloned into pCMV6 constructs (OriGene Technologies). […]
as §1, §2

RXFP4 L118A+V122A = target: T3, RXFP4 L118A+V122A (Homo sapiens, UniProt Q8TDU9, L118A/V122A); assay: cAMP accumulation, RXFP4 L118A+V122A; type: cell-based; conditions: HEK293T
T3 construct: RXFP4(1-374)-; expressed in transfected cells; host or cells: HEK293T, transient (pCMV6)
Text: as §3, §1, §2

RXFP4 L118A = target: T4, RXFP4 L118A (Homo sapiens, UniProt Q8TDU9, L118A); assay: cAMP accumulation, RXFP4 L118A; type: cell-based; conditions: HEK293T
T4 construct: RXFP4(1-374)-; expressed in transfected cells; host or cells: HEK293T, transient (pCMV6)
Text: as §3, §1, §2

RXFP4 V122S = target: T5, RXFP4 V122S (Homo sapiens, UniProt Q8TDU9, V122S); assay: cAMP accumulation, RXFP4 V122S; type: cell-based; conditions: HEK293T, mean ± S.E.M.
T5 construct: RXFP4(1-374)-; expressed in transfected cells; host or cells: HEK293T, transient (pCMV6)
Text: as §3, §1, §2

RXFP3 WT = target: T6, RXFP3 WT (Homo sapiens, UniProt Q9NSD7); assay: cAMP accumulation, WT RXFP3 (HEK293T); type: cell-based; conditions: WT and all the five RXFP3 mutants
T6 construct: RXFP3(1-469)-; expressed in transfected cells; host or cells: HEK293T, transient (pCMV6)
Text: as §3, §1, §2

T1 sequence (Q8TDU9 whole entry E100A): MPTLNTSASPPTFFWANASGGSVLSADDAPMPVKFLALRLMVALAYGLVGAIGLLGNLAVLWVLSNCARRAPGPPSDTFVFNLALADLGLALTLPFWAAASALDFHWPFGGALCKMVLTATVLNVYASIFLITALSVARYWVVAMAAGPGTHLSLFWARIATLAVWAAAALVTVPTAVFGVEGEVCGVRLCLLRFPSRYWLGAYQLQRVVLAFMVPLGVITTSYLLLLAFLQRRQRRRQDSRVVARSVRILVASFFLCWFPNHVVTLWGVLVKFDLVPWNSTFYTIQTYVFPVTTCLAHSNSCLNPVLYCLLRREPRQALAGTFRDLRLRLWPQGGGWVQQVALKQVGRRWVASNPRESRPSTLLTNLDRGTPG
T2 sequence (Q8TDU9 whole entry D104A): as the sequence (Q8TDU9 whole entry E100A) above, with A100E, D104A counted along it
T5 sequence (Q8TDU9 whole entry V122S): as the sequence (Q8TDU9 whole entry E100A) above, with A100E, V122S counted along it
T6 sequence (Q9NSD7 whole entry): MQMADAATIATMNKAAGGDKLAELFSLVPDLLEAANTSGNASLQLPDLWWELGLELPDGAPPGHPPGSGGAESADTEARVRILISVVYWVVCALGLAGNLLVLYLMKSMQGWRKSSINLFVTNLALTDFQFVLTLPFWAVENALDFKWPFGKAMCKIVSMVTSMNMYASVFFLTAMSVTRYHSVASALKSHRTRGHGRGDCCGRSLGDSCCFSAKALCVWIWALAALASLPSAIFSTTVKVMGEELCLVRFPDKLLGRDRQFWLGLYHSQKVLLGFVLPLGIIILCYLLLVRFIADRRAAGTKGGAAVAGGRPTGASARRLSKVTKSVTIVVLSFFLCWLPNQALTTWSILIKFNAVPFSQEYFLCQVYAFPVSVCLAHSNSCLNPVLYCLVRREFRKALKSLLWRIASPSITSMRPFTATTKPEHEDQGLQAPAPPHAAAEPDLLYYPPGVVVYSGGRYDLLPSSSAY
T3 sequence (Q8TDU9 whole entry L118A/V122A): as the sequence (Q8TDU9 whole entry E100A) above, with A100E, L118A, V122A counted along it
T4 sequence (Q8TDU9 whole entry L118A): as the sequence (Q8TDU9 whole entry E100A) above, with A100E, L118A counted along it

Row | SMILES | reaction with parental CHO-K1 cells (parental CHO-K1 cells) | cAMP response (RXFP4 E100A) | EC50 (RXFP4 E100A; 1.5 μM forskolin, mean ± S.E.M., N.A., not active) | Emax (RXFP4 E100A; mean ± S.E.M.) | EC50 (RXFP4 D104A) | Emax (RXFP4 D104A; HEK293T, mean ± S.E.M.) | response (RXFP4 L118A+V122A) | response (RXFP4 L118A) | EC50 (RXFP4 V122S; 1.5 μM forskolin, n = 3) | Emax (RXFP4 V122S) | response (RXFP3 WT)
1 | CCOc1cc2c(cc1OC)CCN(C(=O)N1CCOCC1)[C@H]2CCc1c[nH]c2ccc(OC)cc12 [DC591053, (S)-(7-ethoxy-6-methoxy-1-(2-(5-methoxy-1H-indol-3-yl)ethyl)−3,4-dihydroisoquinolin-2(1H)-yl)(morpholino)methanone] | neither reacted with RXFP3 nor parental CHO-K1 cells | unchanged agonism | 107 nM | 79.27 ± 6.72 % WT |  |  |  |  |  |  | 
2 | CC[C@H](C)[C@@H]1NC(=O)[C@H](Cc2ccc(O)cc2)NC(=O)[C@H]([C@@H](C)CC)NC(=O)[C@H](C(C)C)NC(=O)[C@H]([C@@H](C)O)NC(=O)[C@H](CCCNC(=N)N)NC(=O)[C@H]([C@@H](C)CC)NC(=O)[C@H](Cc2ccc(O)cc2)NC(=O)[C@H](CCC(=O)O)NC(=O)[C@H](CC(C)C)NC(=O)CNC(=O)[C@@H](NC(=O)[C@H](CC(C)C)NC(=O)[C@H](CCCNC(=N)N)NC(=O)[C@@H](NC(=O)[C@H](CO)NC(=O)[C@H](CCC(=O)O)NC(=O)[C@@H](N)CCCCN)C(C)C)CSSC[C@@H]2NC(=O)[C@@H](NC(=O)[C@H](CC(C)C)NC(=O)[C@@H](NC(=O)[C@H](CCC(N)=O)NC(=O)[C@H](CC(C)C)NC(=O)[C@H](CC(=O)O)NC(=O)[C@@H](N)CCC(N)=O)[C@@H](C)O)CSSC[C@H](NC(=O)CNC(=O)[C@H](CC(=O)O)NC(=O)[C@H]([C@@H](C)O)NC2=O)C(=O)N[C@@H](CO)C(=O)N[C@@H](CCSC)C(=O)N[C@@H]([C@@H](C)O)C(=O)N[C@@H](CC(=O)O)C(=O)N[C@@H](CC(C)C)C(=O)N[C@@H](CO)C(=O)N[C@@H](C)C(=O)N[C@@H](CC(C)C)C(=O)N[C@H](C(=O)O)CSSC[C@@H](C(=O)N[C@@H](C)C(=O)N[C@@H](CO)C(=O)N[C@@H](CO)C(=O)N[C@@H](CCCNC(=N)N)C(=O)N[C@@H](Cc2c[nH]c3ccccc23)C(=O)O)NC1=O [INSL5, insulin-like peptide 5] |  |  |  |  | 1.62 nM | 59.09 ± 6.41 % WT | inactive | inactive | 1.02 nM | 45.95 ± 4.97 % WT | inactive
